From ChEMBL document CHEMBL4007492, “Discovery of an Acrylic Acid Based Tetrahydroisoquinoline as an Orally Bioavailable Selective Estrogen Receptor Degrader for ERα+ Breast Cancer” (J Med Chem, 2017)
Converted amounts (≈) assume the structure as drawn. One block for each molecule: values may come before it.

Legend:
[1] = Tmax in Sprague-Dawley rat at 30 mg/kg, po administered as suspension measured up to 7 hrs by LC/MS/MS analysis; format: ADME, organism-based; settings: in vivo
[2] = system: Rattus norvegicus; experiment: Dose normalized Cmax in Sprague-Dawley rat at 100 mg/kg, po administered as suspension measured up to 7 hrs by LC/MS/MS analysis; format: ADME, organism-based; settings: in vivo
[3] = system: Rattus norvegicus; experiment: Dose normalized Cmax in Sprague-Dawley rat at 3 mg/kg, po administered as suspension measured up to 7 hrs by LC/MS/MS analysis; format: ADME, organism-based; settings: in vivo
[4] = system: Rattus norvegicus; experiment: Dose normalized Cmax in Sprague-Dawley rat at 30 mg/kg, po administered as suspension measured up to 7 hrs by LC/MS/MS analysis; format: ADME, organism-based; settings: in vivo
[5] = system: Rattus norvegicus; experiment: Dose normalized Cmax in Sprague-Dawley rat at 3 mg/kg, po administered as solution measured up to 7 hrs by LC/MS/MS analysis; format: ADME, organism-based; settings: in vivo
[6] = system: Rattus norvegicus; experiment: Dose normalized AUC (0 to t) in Sprague-Dawley rat at 3 mg/kg, po administered as solution measured up to 7 hrs by LC/MS/MS analysis; format: ADME, organism-based; settings: in vivo
[7] = system: Canis familiaris; experiment: Dose normalized AUC (0 to t) in Beagle dog at 0.3 mg/kg, iv administered as solution measured up to 7 hrs by LC/MS/MS analysis; format: ADME, organism-based, Canis lupus familiaris; settings: in vivo
[8] = Oral bioavailability in Beagle dog at 10 mg/kg administered as solution measured up to 7 hrs by LC/MS/MS analysis; format: ADME, organism-based, Canis lupus familiaris; settings: in vivo
[9] = species: Mus musculus; settings: in vivo, iv, 1 mg/kg
[10] = Tmax in Sprague-Dawley rat at 3 mg/kg, po administered as solution measured up to 7 hrs by LC/MS/MS analysis; format: ADME, organism-based; settings: in vivo
[11] = Clearance in Beagle dog at 10 mg/kg, po administered as solution measured up to 7 hrs by LC/MS/MS analysis; format: ADME, organism-based, Canis lupus familiaris; settings: in vivo
[12] = system: Canis familiaris; experiment: Dose normalized AUC (0 to t) in Beagle dog at 10 mg/kg, po administered as solution measured up to 7 hrs by LC/MS/MS analysis; format: ADME, organism-based, Canis lupus familiaris; settings: in vivo
[13] = system: Rattus norvegicus; experiment: Dose normalized AUC (0 to t) in Sprague-Dawley rat at 3 mg/kg, po administered as suspension measured up to 7 hrs by LC/MS/MS analysis; format: ADME, organism-based; settings: in vivo
[14] = system: Rattus norvegicus; experiment: Dose normalized AUC (0 to t) in Sprague-Dawley rat at 1 mg/kg, iv administered as solution measured up to 7 hrs by LC/MS/MS analysis; format: ADME, organism-based; settings: in vivo
[15] = system: Rattus norvegicus; experiment: Dose normalized AUC (0 to t) in Sprague-Dawley rat at 30 mg/kg, po administered as suspension measured up to 7 hrs by LC/MS/MS analysis; format: ADME, organism-based; settings: in vivo
[16] = Tmax in Sprague-Dawley rat at 100 mg/kg, po administered as suspension measured up to 7 hrs by LC/MS/MS analysis; format: ADME, organism-based; settings: in vivo
[17] = system: Canis familiaris; experiment: Dose normalized Cmax in Beagle dog at 10 mg/kg, po administered as solution measured up to 7 hrs by LC/MS/MS analysis; format: ADME, organism-based, Canis lupus familiaris; settings: in vivo
[18] = pampa, 4 h, 5 µM
[19] = species: Mus musculus; settings: in vivo, po, 3 mg/kg, 7 h
[20] = system: Canis familiaris; experiment: Clearance in Beagle dog at 10 mg/kg, po administered as solution measured up to 7 hrs by LC/MS/MS analysis relative to hepatic blood flow; format: ADME, organism-based, Canis lupus familiaris; settings: in vivo
[21] = species: Mus musculus; settings: in vivo, po, 3 mg/kg
[22] = system: Rattus norvegicus; experiment: Clearance in Sprague-Dawley rat at 3 mg/kg, po administered as solution measured up to 7 hrs by LC/MS/MS analysis relative to hepatic blood flow; format: ADME, organism-based; settings: in vivo
[23] = Elimination half life in Sprague-Dawley rat at 1 mg/kg, iv or 3 mg/kg, po administered as solution measured up to 7 hrs by LC/MS/MS analysis; format: ADME, organism-based; settings: in vivo, read-out: beta t1/2 (converted)
[24] = Tmax in Sprague-Dawley rat at 3 mg/kg, po administered as suspension measured up to 7 hrs by LC/MS/MS analysis; format: ADME, organism-based; settings: in vivo
[25] = Clearance in Sprague-Dawley rat at 3 mg/kg, po administered as solution measured up to 7 hrs by LC/MS/MS analysis; format: ADME, organism-based; settings: in vivo
[26] = in vivo; settings: C57BL/6, mouse, po, 3 mg/kg
[27] = physchem; settings: buffer, pH 6.8
[28] = system: Rattus norvegicus; experiment: Dose normalized AUC (0 to t) in Sprague-Dawley rat at 100 mg/kg, po administered as suspension measured up to 7 hrs by LC/MS/MS analysis; format: ADME, organism-based; settings: in vivo
[29] = Elimination half life in Beagle dog at 0.3 mg/kg, iv or 10 mg/kg, po administered as solution measured up to 7 hrs by LC/MS/MS analysis; format: ADME, organism-based, Canis lupus familiaris; settings: in vivo, read-out: beta t1/2 (converted)
[30] = in vivo; settings: C57BL/6, mouse, iv, 1 mg/kg
[31] = Oral bioavailability in Sprague-Dawley rat at 3 mg/kg administered as solution measured up to 7 hrs by LC/MS/MS analysis; format: ADME, organism-based; settings: in vivo
[32] = in vivo; settings: C57BL/6, mouse
[33] = Tmax in Beagle dog at 10 mg/kg, po administered as solution measured up to 7 hrs by LC/MS/MS analysis; format: ADME, organism-based, Canis lupus familiaris; settings: in vivo
[34] = system: Plasma; experiment: Metabolic stability of the compound in Sprague Dawley rat plasma assessed as compound racemization rate at 5 uM after 4 hrs by UPLC analysis; format: ADME, cell-free
[35] = system: Plasma; experiment: Metabolic stability of the compound in C57BL/6 mouse plasma assessed as compound racemization rate at 5 uM after 4 hrs by UPLC analysis; format: ADME, cell-free
[36] = system: Plasma; experiment: Metabolic stability of the compound in cynomolgus monkey plasma assessed as compound racemization rate at 5 uM after 4 hrs by UPLC analysis; format: ADME, cell-free, Macaca fascicularis
[37] = Stability of the compound in methanol at room temperature assessed as compound racemization rate at 5 uM at pH 6.8 after 1 hr by UPLC analysis; format: physicochemical; settings: pH 6.8, 1 h
[38] = Stability of the compound in aqueous buffer assessed as compound racemization rate at 5 uM at pH 7.4 after 4 hrs by UPLC analysis; format: physicochemical; settings: pH 7.4, 4 h
[39] = system: Plasma; experiment: Metabolic stability of the compound in human plasma assessed as compound racemization rate at 5 uM after 4 hrs by UPLC analysis; format: ADME, cell-free
[40] = Stability of the compound in aqueous buffer assessed as compound racemization rate at 5 uM at pH 6.8 after 4 hrs by UPLC analysis; format: physicochemical; settings: pH 6.8, 4 h
[41] = system: Plasma; experiment: Metabolic stability of the compound in Beagle dog plasma assessed as compound racemization rate at 5 uM after 4 hrs by UPLC analysis; format: ADME, cell-free, Canis lupus familiaris

Tmax [1]: 2 h | Cmax/dose [2]: 202 nM | Cmax/dose [3]: 602 nM | Cmax/dose [4]: 346 nM | Cmax/dose [5]: 1199 nM | AUCt/dose [6]: 1586 nM·h/mg | AUCt/dose [7]: 14347 nM·h/mg | bioavailability [8]: 56% | AUC/dose [9]: 5808 nM·h/mg | Tmax [10]: 0.3 h | CL/F [11]: 2.3 mL/min/kg | AUCt/dose [12]: 7994 nM·h/mg | AUCt/dose [13]: 955 nM·h/mg | AUCt/dose [14]: 2627 nM·h/mg | AUCt/dose [15]: 1125 nM·h/mg | Tmax [16]: 1.5 h | Cmax/dose [17]: 1311 nM | log(permeability) [18]: -4.1 | Cmax/dose [19]: 2621 nM | CL [20]: 7% | AUC/dose [21]: 4533 nM·h/mg | CL [22]: 27% | half-life [23]: 0.8 h | Tmax [24]: 0.3 h | CL/F [25]: 14.9 mL/min/kg | bioavailability at 7 h [26]: 78% | solubility at 16 h [27]: 94 µM (≈ 40.2 µg/mL) | AUCt/dose [28]: 918 nM·h/mg | half-life [29]: 5 h | clearance at 7 h [30]: 7 mL/min/kg | bioavailability [31]: 60% | half-life at 7 h [32]: 1.1 h | Tmax [33]: 1.2 h
Structure (SMILES): CC(C)c1ccc(N2CCc3cc(O)ccc3C2(C)c2ccc(/C=C/C(=O)O)cc2)cc1 (stereo not drawn)

Structure (SMILES): CC1(c2ccc(/C=C/C(=O)NCC(F)F)cc2)c2ccc(O)cc2CCN1c1ccc(F)cc1 (stereo not drawn)
log(permeability) [18]: -4.2 | solubility at 16 h [27]: < 5 µM

Structure (SMILES): CC1(c2ccc(/C=C/C(=O)O)cc2)c2ccc(O)cc2CCN1c1cccc(F)c1 (stereo not drawn)
log(permeability) [18]: -4.3 | solubility at 16 h [27]: 561 µM (≈ 226 µg/mL)

Drug metabolism [34]: Metabolite_Detected | Drug metabolism [35]: Metabolite_Detected | Drug metabolism [36]: Metabolite_Detected | Drug metabolism [37]: Metabolite_Detected | Drug metabolism [38]: Metabolite_Detected | Drug metabolism [39]: Metabolite_Detected | Drug metabolism [40]: Metabolite_Detected | Drug metabolism [41]: Metabolite_Detected
Structure (SMILES): CC(C)c1ccc(N2CCc3cc(O)ccc3[C@]2(C)c2ccc(/C=C/C(=O)O)cc2)cc1

Drug metabolism [34]: Metabolite_Detected | Drug metabolism [35]: Metabolite_Detected | Drug metabolism [36]: Metabolite_Detected | Drug metabolism [37]: Metabolite_Detected | Drug metabolism [38]: Metabolite_Detected | Drug metabolism [39]: Metabolite_Detected | Drug metabolism [40]: Metabolite_Detected | Drug metabolism [41]: Metabolite_Detected
Structure (SMILES): CC(C)c1ccc(N2CCc3cc(O)ccc3[C@@]2(C)c2ccc(/C=C/C(=O)O)cc2)cc1
